Assays:
[1] = in vivo; cited from earlier work
[2] = patients receiving TPN, 87.5-175 mg/week iron i.v., 3 week period; cited from earlier work
iron deficiency anemia = conditions: 15 mg in PN admixture i.v. over 6 hours every day, 3 months
From the text: A patient with a history of bowel resection, secondary to inflammatory bowel disease is currently receiving TPN therapy at home. The patient develops iron deficiency anemia, secondary to ongoing bloody diarrhea and malabsorption of iron. The patient is unable to take iron supplements by mouth due to bloating and diarrhea.

[3] = single parenteral nutrition component; cited from earlier work

O=P([O-])([O-])OP(=O)([O-])[O-].[Sn+2].[Sn+2] [stannous pyrophosphate]
reported adverse effects [1]: cause hypocalcemia and immediate toxic effects

iron dextran
effect on serum iron levels [2]: effectively raised serum iron levels

soluble ferric pyrophosphate [soluble FePPi]
correction of iron deficiency anemia (iron deficiency anemia): effectively corrects iron deficiency anemia

O=C([O-])CC(O)(CC(=O)O)C(=O)[O-].[Fe+2] [ferrous citrate]
duration of compatibility with amino acid solution [3]: 1 days

— US9161951B2, “Parenteral nutrition composition containing iron” (priority 2005, dated 2015)
